This is an account of results in patent US20220169632A1, “METHODS AND MATERIALS FOR INCREASING OR MAINTAINING NICOTINAMIDE MONONUCLEOTIDE ADENYLYL TRANSFERASE-2 (NMNAT2) POLYPEPTIDE LEVELS” (University of Pittsburgh - Of the Commonwealth System of …, priority 2019, published 2022).

A value given as a limit tells only on which side of the number the result lay.

The assay has as its system NMNAT2-V5 polypeptide. As to the kind of experiment: NMNAT2-V5 polypeptide expression in transfected Beas2B cells (Western blot), dose dependent, 24 h. Format: cell-based. The settings on record: Beas2B cells transfected with NMNAT2-V5 plasmid, compound for 24 hours, read-out: A: compound efficacy (IC50) for NMNAT2 activation. The protocol: FIG. 1. Beas2B cells were transfected with NMNAT2-V5 plasmid. 24 hours later, cells were treated with compounds in a dose dependent manner (0, 1, 5, and 25 μM) for additional 24 hours. Cells were then collected and assayed for NMNAT2-V5 protein expression.
Selected compounds were tested in vitro. Briefly, Beas2B cells were transfected with NMNAT2-V5 plasmid. 24 hours later, cells were treated with a test compound in a dose dependent manner for additional 24 hours. Cells were then collected and assayed for NMNAT2-V5 polypeptide expression. Results of the assay are shown in Table A. Western blots showing levels of NMNAT2-V5 polypeptide for selected compounds are shown in FIG. 1.
For orientation: In western blotting, separated proteins are transferred to a membrane and probed.
As a reminder, the IC50 is the concentration at which inhibition is half-maximal. Take `O=C(COCc1cc(-c2cccs2)sn1)NCCN1CCC(Cc2ccccc2)CC1` [BC18136]: the IC50 is no less than 25 µM.

For the molecule `COc1cccc(NS(=O)(=O)c2ccc3[nH]cc(C(=O)NC(C)c4ccc5c(c4)OCCO5)c(=O)c3c2)c1` (stereo not shown) [BC18134], the IC50 was no less than 25 µM.

Take `O=C(Cn1ccc2ccc(F)cc21)NCc1ccccn1` [BC18127]: the IC50 was 5 to 25 µM.

Take `COc1ccc(OC)c(CCNC(=O)C(Cc2ccccc2)N2Cc3ccccc3C2)c1` (stereo not shown) [BC18117]: the IC50 fell in the range of 5 to 25 µM.

Turning to `Cc1cc(C)n(CC(=O)NCc2ccco2)c(=O)c1C#N` [BC18128], the IC50 was less than 5 µM.

For the molecule `CC(=O)Nc1ccc(NC(=O)c2ccccc2OCc2nc(-c3ccc(C)cc3)ns2)cc1` [BC18116], the half-maximal inhibitory concentration (IC50) is no less than 25 µM.

Consider `Cc1ccc2onc(CNC(=O)NCc3ccccn3)c2c1` [BC18129], for which the half-maximal inhibitory concentration (IC50) was in the range of 5 to 25 µM.

Take `O=C(COCc1cc(-c2cccs2)sn1)NCCN1CCC(Cc2ccccc2)CC1` [BC18115]: the IC50 fell in the range of 5 to 25 µM.

As for `O=C(Cn1ccc2ccc(F)cc21)NCc1ccco1` [BC18126], the IC50 is less than 5 µM.

Turning to `COc1ccc(OC)c(CCNC(=O)C(Cc2ccccc2)N2Cc3ccccc3C2=O)c1` (stereo not shown) [BC18133], the IC50 was 5 to 25 µM.

`CCn1cc(C(=O)NC(C)c2ccc3c(c2)OCCO3)c(=O)c2cc(S(=O)(=O)N3CCc4ccccc4C3)ccc21` (stereo not shown) [BC18131]: the 50% inhibitory concentration (IC50) lay within 5 to 25 µM.

For `O=C(CCc1nnc2n(Cc3ccccc3)c(=O)c3ccccc3n12)N1CCN(CCOc2ccc(Cl)cc2)CC1` [BC18120], the half-inhibitory concentration (IC50) was less than 5 µM.

Consider `O=C(COc1nc2cc(C(=O)NCc3ccc(F)cc3)ccc2c(=O)n1CCOO)c1ccc(O)cc1` [BC18132], for which the IC50 is less than 5 µM.

As to `Cc1n[nH]c(/C=C/c2ccc(N)cc2)c1S(=O)(=O)N1CCC(C(=O)N2CCN(Cc3ccc4c(c3)OCO4)CC2)CC1` [BC18123], the IC50 is less than 5 µM.

In the case of `COc1ccc(OC)c(CCNC(=O)C(Cc2ccccc2)N2Cc3ccccc3C2=O)c1` (stereo not shown) [BC18138], the half-maximal inhibitory concentration (IC50) fell in the range of 5 to 25 µM.

For `CC(=O)Nc1ccc(NC(=O)c2ccccc2OCc2nc(-c3ccc(C)cc3)ns2)cc1` [BC18137], the concentration for half-maximal inhibition (IC50) is 5 to 25 µM.
